Results reported in patent US20080255082A1, “Hair and/or Scalp Care Compositions Incorporating Terpenoid Compounds” (priority 2005, published 2008).
Read-outs that look alike come from different tables or passages of the source.

Experiments:
human recombinant CB1 = molecular target: T1, human recombinant CB1 (Homo sapiens, UniProt P21554); assay: CB1R radioligand binding on membranes from HEK293 cells over-expressing CB1
T1 construct: purchased Perkin-Elmer; host or cells: HEK293
Experimental: (§1) Terpenoid compounds of formula (I), (II) or (III) above were evaluated for their ability to activate Cannabinoid Receptor 1 (CB1R) and Cannabinoid Receptor 2 (CB2R). Their ClogP values were also measured.
CB1R experiments were performed using membranes from HEK293 cells over-expressing human recombinant CB1, as described by the manufacturer (Perkin-Elmer) and using [3H]CP-55,490 as the radioligand.
(§2) Data of active compounds are expressed in Ki (mM) and are means ±SEM of n=3 determinations.
(§3) The values that are stated for each of the compounds is an EC50 value. This is defined as the molar concentration of an agonist, which produces 50% of the maximum possible response for that agonist. The values documented are in micromolar units.

human recombinant CB2 = molecular target: T2, human recombinant CB2 (Homo sapiens, UniProt P34972); assay: CB2R radioligand binding on membranes from HEK293 cells over-expressing CB2
T2 construct: purchased Perkin-Elmer; host or cells: HEK293
Experimental: as §1
CB2R experiments were performed using membranes from HEK293 cells over-expressing human recombinant CB2, as described by the manufacturer (Perkin-Elmer), and using [3H]CP-55,495 as the radioligand.
as §2, §3

[1] = HEK293 membranes, [3H]CP-55,490 radioligand, means of n=3, read-out: CB1R Activity
[2] = HEK293 membranes, [3H]CP-55,495 radioligand, means of n=3, dash = greater than 25 micromolar, read-out: CB2R Activity

T1 sequence (P21554 whole entry): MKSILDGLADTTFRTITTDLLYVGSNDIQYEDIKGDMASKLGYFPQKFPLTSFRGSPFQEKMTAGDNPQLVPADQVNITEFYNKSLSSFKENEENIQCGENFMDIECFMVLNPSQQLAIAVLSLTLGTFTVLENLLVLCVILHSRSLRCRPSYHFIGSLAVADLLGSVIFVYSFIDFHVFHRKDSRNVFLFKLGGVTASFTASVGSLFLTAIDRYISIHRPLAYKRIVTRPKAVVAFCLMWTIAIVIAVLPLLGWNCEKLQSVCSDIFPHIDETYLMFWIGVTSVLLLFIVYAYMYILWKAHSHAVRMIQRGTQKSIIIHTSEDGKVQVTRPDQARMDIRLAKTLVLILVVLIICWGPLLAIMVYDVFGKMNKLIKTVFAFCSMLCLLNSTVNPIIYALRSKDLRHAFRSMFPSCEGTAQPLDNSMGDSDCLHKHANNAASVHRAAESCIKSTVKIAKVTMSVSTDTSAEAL
T2 sequence (P34972 whole entry): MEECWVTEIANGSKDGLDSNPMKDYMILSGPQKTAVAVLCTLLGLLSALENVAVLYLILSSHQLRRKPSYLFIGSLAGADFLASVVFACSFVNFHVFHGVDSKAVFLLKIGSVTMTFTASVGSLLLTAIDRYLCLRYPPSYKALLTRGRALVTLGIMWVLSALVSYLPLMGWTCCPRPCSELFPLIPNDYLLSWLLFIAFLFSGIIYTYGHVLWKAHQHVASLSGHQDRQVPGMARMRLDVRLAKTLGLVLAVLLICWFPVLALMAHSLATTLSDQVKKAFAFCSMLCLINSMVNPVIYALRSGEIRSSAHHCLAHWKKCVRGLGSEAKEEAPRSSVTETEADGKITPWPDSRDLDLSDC

Row | Compound | EC50 (human recombinant CB1; [1]) | EC50 (human recombinant CB2; [2]) | EC50 (human recombinant CB1) | EC50 (human recombinant CB2) | activation of Cannabinoid Receptor 1 (CB1R), in words (human recombinant CB1) | activation of Cannabinoid Receptor 2 (CB2R), in words (human recombinant CB2)
1 | C=C(C)C1Cc2c(cc(O)c3c2OC2C(O)Oc4cc(OC)c(OC)cc4C2C3=O)O1 (centres unmarked) [Example 1, 6-hydroxysumatrol] | 17.1 µM | > 25 µM | – | – | – | –
2 | COc1cc(C2Oc3ccc(C4CC(=O)c5c(O)cc(O)cc5O4)cc3OC2CO)ccc1O (centres unmarked) [Example 3, silandrin] | – | – | 22 µM | > 25 µM | – | –
3 | isophaseollin [Example 2] | 15.5 µM | 22.3 µM | – | – | can activate | can activate
